Entries after “also recorded” stand apart in the source; their conditions may differ.

The test system of experiment [1] is APK. Put plainly: APK IC50. Type of experiment: biochemical.
The target in experiment [2] is MEK. Put plainly: affinity (binding affinities) of the MEK inhibitors. The note with it: affinity of the MEK inhibitors tested in the CCI model.
In experiment [3] the test system is CCI-induced static allodynia. The experiment is described as follows: static allodynia in CCI animals after intrathecal administration of other MEK inhibitors (Biological Example 3). It counts as in vivo, rat. The conditions noted are these: for magnitude of the antiallodynic effect: intrathecal, 30µg of PD 184352 compared with 100µg of pregabalin. From the text: (§1) Animals were anaesthetised with 2% isoflurane 1:4 O2/N2O mixture maintained during surgery via a nose cone. The sciatic nerve was ligated as previously described by Bennett and Xie, 1988. Animals were placed on a homeothermic blanket for the duration of the procedure. After surgical preparation the common sciatic nerve was exposed at the middle of the thigh by blunt dissection through biceps femoris. Proximal to the sciatic trifurcation, about 7mm of nerve was freed of adhering tissue and 4 ligatures (4-0 silk) were tied loosely around it with about 1mm spacing. The incision was closed in layers and the wound treated with topical antibiotics.
(§2) PD 198306 and pregabalin were administered intrathecally in a volume of 10 µl using a 100 µl Hamilton syringe by exposing the spine of the rats under brief isoflurane anaesthesia. Injections were made into the intrathecal space between lumbar region 5-6 with a 10 mm long 27 gauge needle. Penetrations were judged successful if there was a tail flick response. The wound was sealed with an autoclip and rats appeared fully awake within 2-3 min following injection.
(§3) Mechanical hypersensitivity was measured using Semmes-Weinstein von Frey hairs (Stoelting, Illinois, U.S.A.). Animals were placed into wire mesh bottom cages allowing access to the underside of their paws. Animals were habituated to this environment prior to the start of the experiment. Mechanical hypersensitivity was tested by touching the plantar surface of the animals right hind paw with von Frey hairs in ascending order of force ( 0.7, 1.2, 1.5, 2, 3.6, 5.5, 8.5, 11.8, 15.1 and 29g) for up to 6sec. Once a withdrawal response was established, the paw was re-tested, starting with the next descending von Frey hair until no response occurred. The highest force of 29g lifted the paw as well as eliciting a response, thus represented the cut off point. The lowest amount of force required to elicit a response was recorded as the paw withdrawal threshold (PWT) in grams.
The animals and methods for developing chronic constriction injury in the rat, injecting test compounds, and evaluation of static allodynia were according to Example 2 above. […] Static allodynia was assessed with von Frey hairs, before (baseline, BL) and 0.5h, 1h and 2h after intrathecal administration of the compounds
Pregabalin was dissolved in water. All compounds were administered intrathecally in a 10µl volume.
(§4) Data were analysed using a Kruskall-Wallis ANOVA for non-parametric results, followed when significant by Mann-Whitney's t test vs vehicle group.

For experiment [4], the system named is streptozocin-induced static allodynia. The experiment is described as follows: streptozocin-induced static allodynia, von Frey hairs, oral administration (Biological Example 1). Type of experiment: in vivo, rat. Here is the method:
Male Sprague Dawley rats (250-300g), obtained from Bantin and Kingman, (Hull, U.K.) were housed in groups of 3. All animals were kept under a 12h light/dark cycle (lights on at 07h 00min) with food and water ad libitum. All experiments were carried out by an observer blind to drug treatments.
Diabetes was induced in rats by a single i.p. injection of streptozocin (50 mg/kg) as described previously (Courteix et al., 1993).
as §3, with “to 6 sec.” for “to 6sec.”, “of 29 g” for “of 29g”
PD 198306 [N-Cyclopropylmethoxy-3,4,5-trifluoro-2-(4-iodo-2-methylphenylamino)-benzamide] and Cl-1008 (pregabalin) were synthesized at Parke-Davis (Ann Arbor, Ml, USA). PD 198306 was suspended in cremophor:ethanol:water (1:1:8) vehicle. Pregabalin was dissolved in water. Both compounds were administered orally. Streptozocin (Aldrich, UK) was dissolved in 0.9% w/v NaCI and administered intraperitoneally. Drug administrations were made in a volume of 1 ml/kg.
The static allodynia data were analysed using a Kruskall-Wallis ANOVA for non-parametric results, followed when significant by Mann-Whitney's t test.
Static allodynia was assessed with von Frey hairs, before (baseline, BL) and 1h after oral administration of PD 198306 (30mg/kg, p.o.), vehicle (cremophor:ethanol:water, 1:1:8) or pregabalin (30mg/kg, p.o.) (test). Animals were administered again the same compounds on the following day, both in the morning and the afternoon. Static allodynia was assessed only before and 1h after the afternoon administration, in order to minimise the habituation of the animals to the testing conditions. Animals treated with pregabalin received water in the morning administration, in order to avoid the potential development of tolerance to the compound with repeated administration.

Experiment [5] has the same test system. The experiment is described as follows: streptozocin-induced static allodynia, von Frey hairs, oral, intrathecal or intraplantar administration (Biological Example 2). It counts as in vivo, rat. Here is the method: (§5) Male Sprague Dawley rats (250-300g), obtained from Charles River, Margate, U.K.) were housed in groups of 3-6. All animals were kept under a 12h light/dark cycle (lights on at 07h 00min) with food and water ad libitum. All experiments were carried out by an observer blind to drug treatments.
Diabetes was induced in rats by a single i.p. injection of streptozocin (50mg/kg) as described previously (Courteix et al., 1993).
as §2, §3
(§6) Static allodynia was assessed with von Frey hairs, before (baseline, BL) and 0.5h, 1h and 2h after intrathecal or intraplantar administration of PD 198306 (1-30µg, i.t.), vehicle (cremophor:ethanol:water, 1:1:8) or pregabalin (10µg, i.t). For oral administration experiments, static allodynia was assessed with von Frey hairs, before (baseline, BL) and 1h after oral administration of PD 198306 (3-30mg/kg, p.o.), vehicle (cremophor:ethanol:water, 1:1:8) or pregabalin (30mg/kg, p.o.). Animals were administered again the same compounds on the following day, both in the morning and the afternoon. Static allodynia was assessed before and 1h after the morning administration. In the afternoon static allodynia was assessed before, 1h, 2h and 3h after administration for streptozocin treated animals. CCI animals were assessed before, 1h and 2h after administration
(§7) PD 198306 and pregabalin were synthesised at Parke-Davis (Ann Arbor, Ml, USA). PD 198306 was suspended in cremophor:ethanol:water (1:1:8) vehicle. Pregabalin was dissolved in water. Both compounds were administered orally, intrathecally or intraplantar in volumes of 1ml/kg, 10µl and 100µl respectively. Streptozocin (Aldrich, UK) was dissolved in 0.9% w/v NaCl and administered intraperitoneally in a volume of 1ml/kg.
as §4

Experiment [6] concerns CCI-induced static allodynia. Put plainly: CCI-induced static allodynia (chronic constriction injury of the sciatic nerve), von Frey hairs (Biological Example 2). Type of experiment: in vivo, rat. Here is the method: as §5, §1, §2, §3, §6, §7, §4
Where [7] appears, read: single administration 30mg/kg p.o., 1h after administration.
Where [8] appears, read: intrathecal, streptozocin animals.

Broadly, the IC50 is the concentration that gives 50% inhibition. A higher IC50 goes with weaker potency. In experiment [1], `O=C(O)c1cc([N+](=O)[O-])c(Nc2ccc(I)cc2Cl)c(F)c1Nc1ccc(I)cc1Cl` [2,4-bis-(2-chloro-4-iodo-phenylamino)-3-fluoro-5-nitrobenzoic acid] had an IC50 of 29.6 nM.
`COC(=O)c1cc(S(=O)(=O)N(C)C)c(F)c(F)c1Nc1ccc(I)cc1Cl` [2-(2-chloro-4-iodo-phenylamino)-5-dimethylsulfamoyl-3,4-difluoro-benzoic acid methyl ester]: in experiment [1], the IC50 was 222 nM.
`NS(=O)(=O)c1cc(C(=O)NOCC2CC2)c(Nc2ccc(I)cc2Cl)c(F)c1F` [PD219622, 2-(2-chloro-4-iodo-phenylamino)-N-cyclopropylmethoxy-3,4-difluoro-5-sulfamoyl-benzamide] returned an IC50 in experiment [2] of 100 nM. Besides, the “effect on static allodynia” value in experiment [3] (intrathecal 30µg) was “had no significant effect”.
In the case of `O=C(NOCC1CC1)c1ccc(F)c(F)c1Nc1ccc(I)cc1Cl` [PD 184352], in experiment [3] (intrathecal 30µg), the “duration of antiallodynic effect post-injection” value was determined as 30 min and the “effect on static allodynia” value is “blocked the maintenance of static allodynia”. For the same molecule, the “magnitude of the antiallodynic effect” value in experiment [3] is “similar”.
Take `Cc1cc(I)ccc1Nc1c(C(=O)NOCC2CC2)cc(F)c(F)c1F` [PD 198306, N-Cyclopropylmethoxy-3,4,5-trifluoro-2-(4-iodo-2-methylphenylamino)-benzamide]: the streptozocin-induced static allodynia entry in experiment [4] (30mg/kg p.o., 1h after the third administration (administered twice more on the following day)) is listed as “significantly blocked”; in experiment [4] (setting [7]), “had no effect”; in experiment [5] (p.o., 30mg/kg, after the third administration (3 doses over two days), 30 mg/kg), “transient effect; also recorded: significantly blocked”; in experiment [5] (single administration 3-30mg/kg p.o., 1h after administration), “had no effect”. Also, the “persistence of the effects on streptozocin-induced static allodynia” value in experiment [4] (30mg/kg p.o., day after the third administration) is on record as “had disappeared by the following day”. Also, in experiment [5] (30mg/kg p.o., after the third administration), the “duration of block of streptozocin-induced static allodynia” value came out at 2 h. Besides, the static allodynia result in experiment [5] (intraplantar 3mg/100µl, streptozocin animals) was “had no effect”; in experiment [6] (intraplantar 3mg/100µl, CCI animals) it was “had no effect”. In addition, the “maintenance of static allodynia” value was “totally blocked; also recorded: significantly blocked” in experiment [5] (intrathecal 30µg (highest dose), streptozocin animals); “dose-dependently blocked” in experiment [5] (intrathecal 1-30µg, streptozocin animals); “totally blocked; also recorded: significantly blocked” in experiment [6] (intrathecal 30µg (highest dose), CCI animals); “dose-dependently blocked” in experiment [6] (intrathecal 1-30µg, CCI animals). Also, the “duration of antiallodynic effect” value in experiment [5] (setting [8]) is given as “up to 1 h”; in experiment [5] (intrathecal, streptozocin animals, listed as PD198306), 1 h; in experiment [6] (intrathecal, CCI animals) it was “up to 1 h”; in experiment [6] (intrathecal, CCI animals, listed as PD198306) it was 1 h. The “minimum effective dose (MED)” value in experiment [5] (setting [8]) was determined as 3 µg; in experiment [6] (intrathecal, CCI animals), 10 µg. The CCI-induced static allodynia result in experiment [6] (3-30mg/kg p.o., single or multiple administration) is recorded as “had no effect; also recorded: neither a single or multiple administration of PD 198306 (3-30mg/kg, p.o) had any effect”.
Turning to `O=S(=O)(NOCC1CC1)c1ccc(F)c(F)c1Nc1ccc(I)cc1Cl` [PD 0297447, 2-(2-Chloro-4-iodo-phenylamino)-N-cyclopropylmethoxy-3,4-difluoro-benzenesulfonamide], the half-maximal inhibitory concentration (IC50) in experiment [1] and in experiment [2] was 965 nM throughout. Further, in experiment [3] (intrathecal 30µg), the “effect on static allodynia” value is “had no significant effect”.
For `CC(C)C[C@H](CN)CC(=O)O` [pregabalin, reference compound], the streptozocin-induced static allodynia result in experiment [4] (setting [7]) and in experiment [5] (setting [7]) was “significantly blocked” throughout. The CCI-induced static allodynia result in experiment [6] (setting [7]) is given as “significantly blocked”. Also, the “magnitude of the antiallodynic effect” value in experiment [3] is listed as “similar”.

Source of the values: patent EP1202724B1, “METHOD FOR TREATING CHRONIC PAIN USING MEK INHIBITORS” (WARNER-LAMBERT COMPANY, priority 1999, dated 2001).
